According to patent publication US20220289794A1, “SYNTHETIC ANTIMICROBIAL PEPTIDES” (priority 2019, published 2022):
Values after ≈ are worked out from the molar mass of the structure shown. Non-standard residues stand in square brackets, D forms with d. Residues, ends and D or L forms follow the SMILES beside them. Dip = N[C@H](C(=O)O)C(c1ccccc1)c1ccccc1; 2Nal = N[C@@H](Cc1ccc2ccccc2c1)C(=O)O

Key:
B. subtilis (ATCC-6633) = assay: Broad-spectrum activity against Gram-Positive bacteria (MIC); assay type: cell-based; set-up: unit not given here
E. coli (ATCC BAA-2452) = assay: Broad-spectrum activity against Gram-Negative bacteria (MIC); assay type: cell-based; conditions: Table 16, Gram-negative panel
B. cereus (ATCC-13061) = assay: Broad-spectrum activity against Gram-Positive bacteria (MIC); assay type: cell-based; set-up: unit not given here
[1] = tested on: A. baumannii (ATCC BAA-1605); assay: Broad-spectrum activity against Gram-Negative bacteria (MIC); assay type: cell-based; conditions: Table 16, Gram-negative panel
[2] = tested on: P. aeruginosa (ATCC 10145); assay: as above; assay type: cell-based; conditions: Table 16, Gram-negative panel
[3] = tested on: P. aeruginosa (ATCC BAA-1744); assay: as above; assay type: cell-based; conditions: Table 16, Gram-negative panel
[4] = tested on: Klebsiella pneumoniae (ATCC BAA-1705); conditions: Table 16, Gram-negative panel
human red blood cells = tested on: human red blood cells; set-up: unit not given beside the values
[5] = tested on: Enterococcus faecium ATCC 27270; conditions: E. faecium ATCC 27270
[6] = tested on: Enterococcus faecium ATCC 700221; conditions: E. faecium ATCC 700221
[7] = tested on: Klebsiella pneumoniae ATCC 13883; conditions: Table 16, Gram-negative panel
[8] = tested on: Enterococcus faecalis ATCC 29212; conditions: E. faecalis ATCC 29212
[9] = tested on: Enterococcus faecalis ATCC 51575; conditions: E. faecalis ATCC 51575
[10] = tested on: Streptococcus pneumoniae ATCC 49619; conditions: S. pneumoniae ATCC 49619
[11] = tested on: Streptococcus pneumoniae ATCC 51938; conditions: S. pneumoniae ATCC 51938
[12] = tested on: Methicillin-resistant Staphylococcus aureus MRSA (ATCC BAA-1556); conditions: ATCC BAA-1556
S. aureus ATCC 29213 = conditions: ATCC 29213
[13] = tested on: Pseudomonas aeruginosa (ATCC 27883); conditions: ATCC 27883
[14] = tested on: Escherichia coli (ATCC 25922); conditions: ATCC 25922
[15] = tested on: Escherichia coli (E. Coli, ATCC 25922); conditions: Escherichia coli (ATCC 25922); antibiotic alone

MIC E. coli (ATCC BAA-2452) (E. coli (ATCC BAA-2452)) [µg/mL]	MIC A. baumannii (ATCC BAA-1605) [1] [µg/mL]	MIC P. aeruginosa (ATCC 10145) [2] [µg/mL]	MIC P. aeruginosa (ATCC BAA-1744) [3] [µg/mL]	MIC K. pneumonia (ATCC BAA-1705) [4] [µg/mL]	HC50 (human red blood cells)	MIC K. pneumonia (ATCC 13883) [7] [µg/mL]	MIC MRSA ATCC BAA-1556 [12] [µg/mL]	MIC S. aureus ATCC 29213 (S. aureus ATCC 29213) [µg/mL]	MIC P. aeruginosa ATCC 27883 [13] [µg/mL]	MIC E. coli ATCC 25922 [14] [µg/mL]	SMILES	Broad-spectrum activity B. subtilis (ATCC-6633) (B. subtilis (ATCC-6633))	Broad-spectrum activity B. cereus (ATCC-13061) (B. cereus (ATCC-13061))	Broad-spectrum activity E. faecium (ATCC 27270) [5]	Broad-spectrum activity E. faecium (ATCC 700221) [6]	Broad-spectrum activity E. faecalis (ATCC 29212) [8]	Broad-spectrum activity E. faecalis (ATCC 51575) [9]	Broad-spectrum activity S. pneumoniae (ATCC 49619) [10]	Broad-spectrum activity S. pneumoniae (ATCC 51938) [11]	other results
12.5 (≈ 11.3 µM)	25 (≈ 22.7 µM)	50 (≈ 45.4 µM)	25 (≈ 22.7 µM)	12.5 (≈ 11.3 µM)	260	> 50	–	–	–	–	N=C(N)NCCC[C@@H]1NC(=O)[C@H](CCCNC(=N)N)NC(=O)[C@H](C(c2ccccc2)c2ccccc2)NC(=O)[C@H](Cc2c[nH]c3ccccc23)NC(=O)[C@H](C(c2ccccc2)c2ccccc2)NC(=O)[C@H](CCCNC(=N)N)NC1=O [IFX-021, c[Arg-Arg-Arg-Dip-Trp-Dip]] (cyclo([Dip]RRR[Dip]W))	3.1	6.2	6.2	3.1	12.5	12.5	50	25	–
25 (≈ 22 µM)	25 (≈ 22 µM)	50 (≈ 43.9 µM)	25 (≈ 22 µM)	12.5 (≈ 11 µM)	205	50 (≈ 43.9 µM)	3.1 (≈ 2.72 µM)	3.1 (≈ 2.72 µM)	12.5 (≈ 11 µM)	12.5 (≈ 11 µM)	N=C(N)NCCC[C@@H]1NC(=O)[C@H](CCCNC(=N)N)NC(=O)[C@H](C(c2ccccc2)c2ccccc2)NC(=O)[C@H](C(c2ccccc2)c2ccccc2)NC(=O)[C@H](C(c2ccccc2)c2ccccc2)NC(=O)[C@H](CCCNC(=N)N)NC1=O [IFX-002, c[Arg-Arg-Arg-Dip-Dip-Dip]] (cyclo([Dip][Dip][Dip]RRR))	6.2	12.5	6.2	6.2	12.5	12.5	50	25	–
–	–	–	–	–	–	–	–	–	–	–	O=C(O)c1cn(C2CC2)c2cc(N3CCNCC3)c(F)cc2c1=O [Ciprofloxacin, reference compound]	–	–	–	–	–	–	–	–	MIC of antibiotic [15]: 64 µg/mL
12.5 (≈ 10.3 µM)	6.2 (≈ 5.1 µM)	50 (≈ 41.1 µM)	25 (≈ 20.6 µM)	25 (≈ 20.6 µM)	300	50 (≈ 41.1 µM)	6.2 (≈ 5.1 µM)	6.2 (≈ 5.1 µM)	>100	25 (≈ 20.6 µM)	N=C(N)NCCC[C@@H]1NC(=O)[C@H](CCCNC(=N)N)NC(=O)[C@H](Cc2ccc3ccccc3c2)NC(=O)[C@H](Cc2ccc3ccccc3c2)NC(=O)[C@H](CCCNC(=N)N)NC(=O)[C@H](CCCNC(=N)N)NC(=O)[C@H](Cc2ccc3ccccc3c2)NC1=O [IFX-018, c[Arg-NaI-Arg-Arg-NaI-NaI-Arg]] (cyclo(R[2Nal]RR[2Nal][2Nal]R))	1.5	3.1	1.5	1.5	6.2	12.5	25	12.5	–
6.2 (≈ 4.79 µM)	12.5 (≈ 9.66 µM)	25 (≈ 19.3 µM)	12.5 (≈ 9.66 µM)	12.5 (≈ 9.66 µM)	190	50 (≈ 38.6 µM)	1.5 (≈ 1.16 µM)	1.5 (≈ 1.16 µM)	12.5 (≈ 9.66 µM)	12.5 (≈ 9.66 µM)	N=C(N)NCCC[C@@H]1NC(=O)[C@H](CCCNC(=N)N)NC(=O)[C@H](CCCNC(=N)N)NC(=O)[C@H](C(c2ccccc2)c2ccccc2)NC(=O)[C@H](C(c2ccccc2)c2ccccc2)NC(=O)[C@H](C(c2ccccc2)c2ccccc2)NC(=O)[C@H](CCCNC(=N)N)NC1=O [IFX-008, c[Arg-Arg-Arg-Arg-Dip-Dip-Dip]] (cyclo(RRRR[Dip][Dip][Dip]))	1.5	6.2	3.1	1.5	6.2	12.5	25	12.5	–
–	–	–	–	–	–	–	–	–	–	–	N=C(N)NCCC[C@@H]1NC(=O)[C@H](CCCNC(=N)N)NC(=O)[C@H](CCCNC(=N)N)NC(=O)[C@H](Cc2c[nH]c3ccccc23)NC(=O)[C@H](Cc2c[nH]c3ccccc23)NC(=O)[C@H](Cc2c[nH]c3ccccc23)NC(=O)[C@H](Cc2c[nH]c3ccccc23)NC(=O)[C@H](CCCNC(=N)N)NC(=O)[C@H](CCCNC(=N)N)NC1=O [[R5W4] IFX-301]	–	–	–	–	–	–	–	–	MIC (KPC): 32 µg/mL (≈ 21 µM); MIC (PSA): 32 µg/mL (≈ 21 µM); MIC (E. coli): 16 µg/mL (≈ 10.5 µM)
6.2 (≈ 5.63 µM)	25 (≈ 22.7 µM)	25 (≈ 22.7 µM)	12.5 (≈ 11.3 µM)	12.5 (≈ 11.3 µM)	180	50 (≈ 45.4 µM)	–	–	–	–	N=C(N)NCCC[C@@H]1NC(=O)[C@H](CCCNC(=N)N)NC(=O)[C@H](CCCNC(=N)N)NC(=O)[C@H](C(c2ccccc2)c2ccccc2)NC(=O)[C@H](C(c2ccccc2)c2ccccc2)NC(=O)[C@H](Cc2c[nH]c3ccccc23)NC1=O [IFX-020, c[Arg-Arg-Arg-Trp-Dip-Dip]] (cyclo([Dip][Dip]RRRW))	1.5	3.1	3.1	1.5	6.2	12.5	25	12.5	–
12.5 (≈ 9.66 µM)	12.5 (≈ 9.66 µM)	25 (≈ 19.3 µM)	12.5 (≈ 9.66 µM)	25 (≈ 19.3 µM)	310	50 (≈ 38.6 µM)	6.2 (≈ 4.79 µM)	6.2 (≈ 4.79 µM)	50 (≈ 38.6 µM)	>100	N=C(N)NCCC[C@@H]1NC(=O)[C@H](CCCNC(=N)N)NC(=O)[C@H](C(c2ccccc2)c2ccccc2)NC(=O)[C@H](C(c2ccccc2)c2ccccc2)NC(=O)[C@H](CCCNC(=N)N)NC(=O)[C@H](CCCNC(=N)N)NC(=O)[C@H](C(c2ccccc2)c2ccccc2)NC1=O [IFX-016, c[Arg-Dip-Arg-Arg-Dip-Dip-Arg]] (cyclo(R[Dip]RR[Dip][Dip]R))	1.5	6.2	3.1	1.5	6.2	12.5	25	12.5	–
6.2 (≈ 5.1 µM)	12.5 (≈ 10.3 µM)	25 (≈ 20.6 µM)	12.5 (≈ 10.3 µM)	25 (≈ 20.6 µM)	325	50 (≈ 41.1 µM)	6.2 (≈ 5.1 µM)	6.2 (≈ 5.1 µM)	50 (≈ 41.1 µM)	50 (≈ 41.1 µM)	N=C(N)NCCC[C@@H]1NC(=O)[C@H](CCCNC(=N)N)NC(=O)[C@H](Cc2ccc3ccccc3c2)NC(=O)[C@H](Cc2ccc3ccccc3c2)NC(=O)[C@H](CCCNC(=N)N)NC(=O)[C@H](CCCNC(=N)N)NC(=O)[C@H](Cc2ccc3ccccc3c2)NC1=O [IFX-019, c[Arg-Arg-NaI-NaI-Arg-Arg-NaI]] (cyclo(R[2Nal]RR[2Nal][2Nal]R))	1.5	1.5	1.5	1.5	3.1	6.2	25	12.5	–
